SMILES strings stand for the structures. Like-named read-outs stand apart in the source and are kept apart here.

These results are taken from patent publication US10336746B1, “RAD51 inhibitors” (Cyteir Therapeutics, Inc., priority 2017, dated 2019).

Data set [1] is described as follows: Bi-directional Caco-2 permeability. The data set is classed as in vitro ADME. Particulars: human; for efflux ratio at 90 min: Caco-2, read-out: BA/AB Ratio; for Papp A→B at 90 min: Caco-2, apical to basolateral, read-out: AB Papp (cm/sec × 10^6); for Papp A→B at 90 min / Papp B→A at 90 min: 37 C, up to 90 minutes; for Papp B→A at 90 min: Caco-2, basolateral to apical, read-out: BA Papp (cm/sec × 10^6). As to the method:
Bi-directional Caco-2 permeability was assayed. Caco-2 cells were seeded onto permeable polycarbonate supports and allowed to differentiate for about 3 weeks prior to being used in the assays. The cells were then exposed to the compounds from either the apical or basolateral sides and incubated at 37 C for up to 90 minutes under light agitation. Compound transport was then measured using LC/MS/MS analysis at 30, 60, and 90 minutes.

Data set [2] has as its system Daudi cell line (AID positive). The data set is described as follows: Primary screening cell killing assay, Daudi cell line (AID positive). It is filed as cell-based. The settings on record: Homo sapiens, 168 h, cell death on Day 7, Cell-Titer Glo. The method, boiled down:
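AID-positive Daudi cells, 1250 per well, were exposed to serially diluted compounds for 7 days at 37° C. Viability read by CellTiter-Glo luminescence; percent cell death and EC50 derived against untreated wells after media-blank subtraction.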

Data set [3] has as its system WI-38 cells (AID negative). The data set is described as follows: Primary screening cell killing assay repeated in WI-38 cells (AID negative). It is filed as cell-based. The settings on record: Homo sapiens, 168 h, cell death on Day 7, Cell-Titer Glo. As to the method:
Primary screening was a phenotypic screen that utilized the synthetic lethal interaction between AID and RAD51 to identify compounds that were both potent and on target. AID expressing cells are dependent upon RAD51 for survival; inhibiting RAD51 in AID positive cells results in a cytotoxic effect.
Percent cell death and EC50 values were calculated by comparing the cell viability of the compound treated wells to the non-treated wells. Normalized RLU values were obtained by subtracting the media well values from each of the wells in the same column, and then dividing that value by the DMSO treated cells values. The percent kill was then calculated by subtracting the normalized RLU value from 1 and multiplying by 100. The average normalized percent kill value and standard error of the mean was then calculated. The kill values were then inputted into Prism with the corresponding standard errors. In Prism a non-linear regression line was plotted with the data points using a semi-log scale, and the EC50 value was calculated.

[4] abbreviates: Caco-2, Caco-2, AB direction, read-out: AB Recovery %.
[5] abbreviates: Caco-2, Caco-2, BA direction, read-out: BA Recovery %.

For orientation: EC50 means the concentration that produces a half-maximal response. Consider `CC(C)OC(=O)Nc1ccc(-c2cnc(C3CCC(NC(=O)OC4COC4)CC3)s2)c(S(=O)(=O)NC(C)(C)C)c1` (centres unmarked) [Ex. 48, oxetan-3-yl ((1r,4r)-4-(5-(2-(N-(tert-butyl)sulfamoyl)-4-((isopropoxycarbonyl)amino)phenyl)thiazol-2-yl)cyclohexyl)carbamate], for which the recovery at 90 min in data set [1] (setting [4]) was determined as 80.1%. Besides, in data set [1] (setting [5]), the recovery at 90 min is 90.3%. Moreover, in data set [1], the efflux ratio at 90 min amounted to 0.7, the Papp A→B at 90 min is 23.1 ×10⁻⁶ cm/s and the Papp B→A at 90 min worked out at 16 ×10⁻⁶ cm/s. Also, the EC50 in data set [2] fell in the range of 0.1 to 1 µM. For the same molecule, in data set [3], the EC50 was greater than 1 µM.

With `CC(C)(C)NS(=O)(=O)c1cc(NC(=O)NCc2ccccc2)ccc1-c1cnc([C@H]2CC[C@H](NC(=O)OC(C)(C)C)CC2)s1` [Ex. 10, trans-tert-butyl N-[4-[5-[4-(benzylcarbamoylamino)-2-(tert-butylsulfamoyl)phenyl]thiazol-2-yl]cyclohexyl]carbamate], in data set [1] (setting [4]), the recovery at 90 min was 59.9%. In addition, in data set [1] (setting [5]), the recovery at 90 min is 87.2%. For the same molecule, in data set [1], the efflux ratio at 90 min was found to be 1.3, the Papp A→B at 90 min is 1.2 ×10⁻⁶ cm/s and the Papp B→A at 90 min worked out at 1.5 ×10⁻⁶ cm/s. The molecule also displayed an EC50 in data set [2] of no more than 0.1 µM. This molecule showed an EC50 in data set [3] greater than 1 µM.

Regarding `CC(C)OC(=O)N[C@H]1CC[C@H](c2ncc(-c3ccc(NC(=O)NCc4cccc(F)c4)cc3S(=O)(=O)NC(C)(C)C)s2)CC1` [Ex. 27, isopropyl ((1r,4r)-4-(5-(2-(N-(tert-butyl)sulfamoyl)-4-(3-(3-fluorobenzyl)ureido)phenyl)thiazol-2-yl)cyclohexyl)carbamate], the recovery at 90 min in data set [1] (setting [4]) was determined as 92%; in data set [1] (setting [5]) it was 107%. Moreover, the efflux ratio at 90 min in data set [1] came out at 0.7. Besides, the Papp A→B at 90 min in data set [1] amounted to 0.7 ×10⁻⁶ cm/s. The Papp B→A at 90 min in data set [1] is 0.5 ×10⁻⁶ cm/s. The EC50 in data set [2] was no more than 0.1 µM; in data set [3], greater than 1 µM.

Regarding `C[C@H](NC(=O)Nc1ccc(-c2cnc(C3CCC(NC(=O)OC4COC4)CC3)s2)c(S(=O)(=O)NC(C)(C)C)c1)c1ccccc1F` (stereo partly drawn) [Ex. 55, oxetan-3-yl ((1S,4r)-4-(5-(2-(N-(tert-butyl)sulfamoyl)-4-(3-((S)-1-(2-fluorophenyl)ethyl)ureido)phenyl)thiazol-2-yl)cyclohexyl)carbamate], the recovery at 90 min in data set [1] (setting [4]) came out at 65.2%. In addition, in data set [1] (setting [5]), the recovery at 90 min was determined as 83.8%. Further, in data set [1], the efflux ratio at 90 min is 1.1, the Papp A→B at 90 min amounted to 6.5 ×10⁻⁶ cm/s and the Papp B→A at 90 min stood at 7 ×10⁻⁶ cm/s. This molecule also returned an EC50 in data set [2] of no more than 0.1 µM. Moreover, the EC50 in data set [3] is greater than 1 µM.

As for `CC(C)OC(=O)Nc1ccc(-c2cnc(C34CCC(NC(=O)OC(C)C)(CC3)CC4)s2)c(S(=O)(=O)NC(C)(C)C)c1` [Ex. 17, isopropyl N-[3-(tert-butylsulfamoyl)-4-[2-[4-(isopropoxycarbonylamino)-1-bicyclo[2.2.2]octanyl]thiazol-5-yl]phenyl]carbamate], the results for the recovery at 90 min in data set [1] (setting [4]) and in data set [1] (setting [5]) were 47.2% and 81.9%, respectively. In data set [1], the efflux ratio at 90 min worked out at 0.8. Moreover, the Papp A→B at 90 min in data set [1] amounted to 2.8 ×10⁻⁶ cm/s. In addition, the Papp B→A at 90 min in data set [1] is 2.1 ×10⁻⁶ cm/s. Further, the EC50 in data set [2] was 0.1 to 1 µM; in data set [3], greater than 1 µM.

`CC(C)OC(=O)N[C@@H]1CC[C@@H](c2ncc(-c3ccc(NC(=O)NCc4ccccc4)cc3S(=O)(=O)NC(C)(C)C)s2)OC1` [Ex. 59A]: in data set [1] (setting [4]), the recovery at 90 min stood at 55.6%. Moreover, in data set [1] (setting [5]), the recovery at 90 min was found to be 85.5%. Moreover, in data set [1], the efflux ratio at 90 min turned out to be 3.1, the Papp A→B at 90 min was 3.1 ×10⁻⁶ cm/s and the Papp B→A at 90 min was 9.6 ×10⁻⁶ cm/s. The molecule also displayed an EC50 in data set [2] of 0.1 to 1 µM. Besides, the EC50 in data set [3] was greater than 1 µM.

As to `CC(C)OC(=O)Nc1ccc(-c2cnc([C@@H]3CC[C@@H](NC(=O)OC(C)C)CO3)s2)c(S(=O)(=O)NC(C)(C)C)c1` [Ex. 60A], the recovery at 90 min in data set [1] (setting [4]) was 55.3%; in data set [1] (setting [5]), 86%. The efflux ratio at 90 min in data set [1] is 0.9. Moreover, the Papp A→B at 90 min in data set [1] was 12 ×10⁻⁶ cm/s. The Papp B→A at 90 min in data set [1] is 11.2 ×10⁻⁶ cm/s. Besides, the EC50 in data set [2] and in data set [3] was greater than 1 µM throughout.

For the molecule `CC(C)OC(=O)N[C@H]1CC[C@H](c2ncc(-c3ccc(NC(=O)NCc4ccccc4)cc3S(=O)(=O)NC(C)(C)C)s2)OC1` [Ex. 59B], the recovery at 90 min in data set [1] (setting [4]) is 56.2%. The recovery at 90 min in data set [1] (setting [5]) was 82%. In addition, in data set [1], the efflux ratio at 90 min was determined as 2.1, the Papp A→B at 90 min turned out to be 4.6 ×10⁻⁶ cm/s and the Papp B→A at 90 min amounted to 9.7 ×10⁻⁶ cm/s. In data set [2], this molecule had an EC50 of no more than 0.1 µM. The molecule further registered an EC50 in data set [3] greater than 1 µM.

For the molecule `CC(C)OC(=O)NC1CCC(c2ncc(-c3ccc(NC(=O)OC4COC4)cc3S(=O)(=O)NC(C)(C)C)s2)CC1` (centres unmarked) [Ex. 38, isopropyl ((1r,4r)-4-(5-(2-(N-(tert-butyl)sulfamoyl)-4-(((oxetan-3-yloxy)carbonyl)amino)phenyl)thiazol-2-yl)cyclohexyl)carbamate], in data set [1] (setting [4]), the recovery at 90 min is 73.3%. Also, the recovery at 90 min in data set [1] (setting [5]) worked out at 82.3%. In data set [1], the efflux ratio at 90 min was determined as 1.3, the Papp A→B at 90 min stood at 17.9 ×10⁻⁶ cm/s and the Papp B→A at 90 min is 22.9 ×10⁻⁶ cm/s. In data set [2], this molecule yielded an EC50 of no more than 0.1 µM. Moreover, the EC50 in data set [3] is greater than 1 µM.

With `CC(C)OC(=O)N[C@@H]1CC[C@@H](c2ncc(-c3ccc(NC(=O)NCc4ccccc4)cc3S(=O)(=O)NC(C)(C)C)s2)NC1` [Ex. 64, isopropyl ((3R,6S)-6-(5-(4-(3-benzylureido)-2-(N-(tert-butyl)sulfamoyl)phenyl)thiazol-2-yl)piperidin-3-yl)carbamate], the recovery at 90 min in data set [1] (setting [4]) turned out to be 79.7%. In data set [1] (setting [5]), the recovery at 90 min is 95.9%. In data set [1], the efflux ratio at 90 min was determined as 12.5, the Papp A→B at 90 min was determined as 2.2 ×10⁻⁶ cm/s and the Papp B→A at 90 min worked out at 27.4 ×10⁻⁶ cm/s. In data set [2], this molecule registered a concentration for a half-maximal effect (EC50) of no more than 0.1 µM. The EC50 in data set [3] is greater than 1 µM.

Regarding `CC(C)(C)NS(=O)(=O)c1cc(NC(=O)NCc2ccccc2F)ccc1-c1cnc(C2CCC(NC(=O)OC3COC3)CC2)s1` (centres unmarked) [Ex. 53, oxetan-3-yl ((1r,4r)-4-(5-(2-(N-(tert-butyl)sulfamoyl)-4-(3-(2-fluorobenzyl)ureido)phenyl)thiazol-2-yl)cyclohexyl)carbamate], the recovery at 90 min in data set [1] (setting [4]) came to 63.1%. The recovery at 90 min in data set [1] (setting [5]) amounted to 90.9%. Further, in data set [1], the efflux ratio at 90 min turned out to be 1, the Papp A→B at 90 min is 9.3 ×10⁻⁶ cm/s and the Papp B→A at 90 min was determined as 9.7 ×10⁻⁶ cm/s. Also, the EC50 in data set [2] is no more than 0.1 µM. Further, the EC50 in data set [3] was greater than 1 µM.

Consider `CC(C)OC(=O)N[C@H]1CC[C@H](c2ncc(-c3ccc(NC(=O)NCc4ccccc4)cc3S(=O)(=O)NC(C)(C)CO)s2)CC1` [Ex. 74, trans-isopropyl N-[4-[5-[4-(benzylcarbamoylamino)-2-[(2-hydroxy-1,1-dimethyl-ethyl)sulfamoyl]phenyl]thiazol-2-yl]cyclohexyl]carbamate], for which the figures for the EC50 in data set [2] and in data set [3] were no more than 0.1 µM and greater than 1 µM, respectively.

On to `CC(C)OC(=O)N1CCC(c2ncc(-c3ccc(NC(=O)NCc4ccccn4)cc3S(=O)(=O)NC(C)(C)C)s2)CC1` [Ex. 4, isopropyl 4-[5-[2-(tert-butylsulfamoyl)-4-(2-pyridylmethylcarbamoylamino)phenyl]thiazol-2-yl]piperidine-1-carboxylate], for which the EC50 in data set [2] and in data set [3] was greater than 1 µM each time.

On to `CC(C)OC(=O)NC1CCC(c2ncc(-c3ccc(NC(=O)OCc4ccccc4F)cc3S(=O)(=O)NC(C)(C)C)s2)CC1` (centres unmarked) [Ex. 40, 2-fluorobenzyl (3-(N-(tert-butyl)sulfamoyl)-4-(2-((1r,4r)-4-((isopropoxycarbonyl)amino)cyclohexyl)thiazol-5-yl)phenyl)carbamate], for which the EC50 was no more than 0.1 µM in data set [2] and greater than 1 µM in data set [3].

`CC(C)OC(=O)N[C@H]1CC[C@H](c2ncc(-c3ccc(NC(=O)N[C@@H](C)c4ccccc4)cc3S(=O)(=O)NC(C)(C)C)s2)CC1` [Ex. 26, isopropyl ((1S,4r)-4-(5-(2-(N-(tert-butyl)sulfamoyl)-4-(3-((S)-1-phenylethyl)ureido)phenyl)thiazol-2-yl)cyclohexyl)carbamate]: the EC50 in data set [2] was no more than 0.1 µM; in data set [3], greater than 1 µM.

For the molecule `CC(C)OC(=O)NC12CCC(c3ncc(-c4ccc(NC(=O)N[C@@H](C)c5ccccc5)cc4S(=O)(=O)NC(C)(C)C)s3)(CC1)CC2` [Ex. 13, isopropyl (S)-(4-(5-(2-(N-(tert-butyl)sulfamoyl)-4-(3-(1-phenylethyl)ureido)phenyl)thiazol-2-yl)bicyclo[2.2.2]octan-1-yl)carbamate], the EC50 in data set [2] was no more than 0.1 µM; in data set [3], greater than 1 µM.

On to `CC(C)OC(=O)NC12CCC(c3ncc(-c4ccc(NC(=O)NCc5ccccc5)cc4S(=O)(=O)NC(C)(C)C)s3)(CC1)CC2` [Ex. 18, isopropyl (4-(5-(4-(3-benzylureido)-2-(N-(tert-butyl)sulfamoyl)phenyl)thiazol-2-yl)bicyclo[2.2.2]octan-1-yl)carbamate], for which the EC50 is no more than 0.1 µM in data set [2] and greater than 1 µM in data set [3].
